According to patent US20160243149A1, “NOVEL ANTI-VIRAL THERAPEUTIC” (priority 2012, published 2016):

Target: T1, VPg unlinkase (Homo sapiens, UniProt O95551)
T1 construct: To generate the HeLa cell homogenate used for the isolation of VPg unlinkase, 5 ml of packed HeLa cells were homogenized; endogenous in cells; host or cells: HeLa cells (uninfected); enzyme fractionated from total cell homogenate
T1 sequence (O95551 1-362): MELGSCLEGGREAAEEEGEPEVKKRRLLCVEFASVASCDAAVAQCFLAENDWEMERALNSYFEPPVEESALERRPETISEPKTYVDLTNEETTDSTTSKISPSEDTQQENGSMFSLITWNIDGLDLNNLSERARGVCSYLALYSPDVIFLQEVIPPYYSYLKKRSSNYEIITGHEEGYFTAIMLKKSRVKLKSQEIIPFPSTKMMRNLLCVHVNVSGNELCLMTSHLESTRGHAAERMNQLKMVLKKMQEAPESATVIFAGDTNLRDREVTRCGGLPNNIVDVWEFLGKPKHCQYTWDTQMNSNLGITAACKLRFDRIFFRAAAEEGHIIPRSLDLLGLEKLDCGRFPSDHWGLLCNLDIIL
Assay type: biochemical

Cl.Nc1ncnc2c1ncn2[C@@H]1O[C@H](COC(=O)c2ccc(S(=O)(=O)F)cc2)[C@@H](O)[C@H]1O [5′FSBA]
suppression of unlinkase activity: effectively suppressed unlinkase activity
